Reference: patent publication US20120071397A1, “Methods for Hematopoietic Stem Cell Transplantation” (University of Southern California, priority 2010, published 2012)

Tested on: C57Bl/6 mice transplanted after myeloablation by total body irradiation (TBI)
Assay: Survival of mice after syngeneic bone marrow transplant following myeloablation by total body irradiation, with suspected norovirus infection
Assay type: in vivo
Conditions: 500 μg/kg/day subcutaneous, FIG. 1
Description: FIG. 1. C57Bl/6 mice (n=40/group) were transplanted after myeloablation by total body irradiation (TBI) from Saline or A(1-7) treated donors and received saline or A(1-7) after transplant.
[…] mice underwent […] in split doses separated by 3 hours. Two hours after TBI, the mice received 2×10^6 syngeneic bone marrow cells by intravenous injection. For treatment, either donors (14 days prior to donation), recipients (starting on the day of transplant) or both received 500 μg/kg/day A(1-7) by subcutaneous injection During bone marrow transplant (BMT), recipients are immune suppressed due to myeloablation. Mice are normally kept in pathogen-free environments during BMT to reduce mortality due to infection.

Substance: Asp-Arg-Val-Tyr-Ile-His-Pro (DRVYIHP) [A(1-7)]
- survival (both donor and recipient treated): all surviving
- survival (treatment of either donor (14 days prior to donation), recipient (starting on day of transplant) or both): improved survival
